From US20050164173A1, “Combined treatments and methods for treatment of mycoplasma and mycoplasma-like organism infections” (priority 2001, published 2005) come the findings set out here.

The test system of this assay is mycoplasma-like organisms. In words: tritiated uracil incorporation into mycoplasma-density fractions of CEM culture supernatant (sucrose density gradient). The conditions noted are these: control peak about 1200 counts. Format: cell-based. The text has this:
As shown in FIGS. 1A-1C, superoxide dismutase (SOD) from a vegetal source has a significant decreasing effect on mycoplasma growth. SOD was included in the medium at the first of the five day experiment. The SOD was purified from melon plant material.

superoxide dismutase [SOD]: the “peak of tritiated uracil incorporation (mycoplasma growth)” value is on record as “around 500 counts” (50 μg/ml SOD in medium from first of five days) and “around 250 counts” (100 μg/ml SOD in medium from first of five days).
